Measured values as given in patent US12685315B2, “Herbicidal combination” (UPL do Brasil Industria e Comercio de Insumos Agropecuarios …, priority 2019, dated 2026).

Columns and labels:
Format in all cases: in vivo
Eleusine indica = experiment: Field trial of triple mixes of amicarbazone, pre and post-emergence weed control; conditions: Table 10, dose g ai/ha: Amicarbazone 75, Mesotrione 38, Ametryn 250, mix AMC + AME + MST 75 + 38 + 250
Procedure: (§1) Field trials were done to evaluate the efficacy and synergism of the triple mixes of amicarbazone with other herbicides for the control of weeds in pre and post-emergence application.
(§2) The composition of the present invention was applied. This test was performed for species of weeds: Grasses namely BRADC=Brachiaria decumbens, CCHEC=Cenchrus echinatus, ELEIN=Eleusine indica, TRCIN=Digitaria insularis and Broadleaves namely IAQGR=Ipomoea grandifolia, EPHHL=Euphorbia heterophylla, COMBE=Commelina benghalensis. Data were collected at various period after application of the composition to the soil and calculated.

Commelina benghalensis = experiment: Field trial of triple mixes of amicarbazone, pre-emergence weed control; conditions: dose g ai/ha: Amicarbazone 75, Mesotrione 38, Ametryn 250, mix AMC + AME + MST 75 + 38 + 250
Procedure: as §1, §2

[1] = tested on: Brachiaria decumbens (BRADC); experiment: Field trial of triple mixes of amicarbazone, pre and post-emergence weed control; conditions: Table 1, dose g ai/ha: Amicarbazone 75, Isoxaflutole 15, Atrazine 250, mix 75 + 15 + 250
Procedure: as §1, §2

[2] = tested on: Cenchrus echinatus (CCHEC); experiment: as above; conditions: Table 2, Post-Emergence, dose g ai/ha: Amicarbazone 75, Isoxaflutole 15, Atrazine 250, mix 75 + 15 + 250
Procedure: as §1, §2

[3] = tested on: Ipomoea grandifolia (IAQGR); experiment: Field trial of triple mixes of amicarbazone, pre-emergence weed control; conditions: dose g ai/ha: Amicarbazone 75, Isoxaflutole 15, Atrazine 250, mix 75 + 15 + 250
Procedure: as §1, §2

Digitaria insularis = experiment: Field trial of triple mixes of amicarbazone, post-emergence weed control; conditions: dose g ai/ha: Amicarbazone 75, S-metolachlor 300, Atrazine 250, mix 75 + 300 + 250
Procedure: as §1, §2

| SMILES | % Control (Eleusine indica; Post-Emergence, 14 DAA) [%] | % Control (Eleusine indica; Post-Emergence, 21 DAA) [%] | % Control (Eleusine indica; Post-Emergence, 28 DAA) [%] | % Control (Eleusine indica; Pre-Emergence, 14 DAA) [%] | % Control (Eleusine indica; Pre-Emergence, 21 DAA) [%] | % Control (Eleusine indica; Pre-Emergence, 28 DAA) [%] | % Control (Commelina benghalensis; Table 11, 21 DAA) [%] | % Control (Commelina benghalensis; Table 11, 28 DAA) [%] | % Control (Commelina benghalensis; Table 11, 35 DAA) [%] | further results |
| --- | --- | --- | --- | --- | --- | --- | --- | --- | --- | --- |
| CCNc1nc(NC(C)C)nc(SC)n1 [Ametryn] | 53.8 | 27.5 | 22.5 | 51.3 | 42.5 | 35.0 | 15.0 | 8.8 | 2.5 |  |
| CCNc1nc(Cl)nc(NC(C)C)n1 [Atrazine] |  |  |  |  |  |  |  |  |  | % Control ([1]; Post-Emergence, 7 DAA): 37.5%; % Control ([1]; Post-Emergence, 21 DAA): 21.3%; % Control ([1]; Post-Emergence, 28 DAA): 23.8%; % Control ([1]; Pre-Emergence, 7 DAA): 0.0%; % Control ([1]; Pre-Emergence, 21 DAA): 0.0%; % Control ([1]; Pre-Emergence, 28 DAA): 0.0%; % Control ([2]; 7 DAA): 47.5%; % Control ([2]; 28 DAA): 26.3%; % Control ([2]; 35 DAA): 23.8%; % Control ([3]; Table 3, 14 DAA): 0.0%; % Control ([3]; Table 3, 21 DAA): 0.0%; % Control ([3]; Table 3, 28 DAA): 0.0%; % Control (Digitaria insularis; Table 9, 21 DAA): 21.3%; % Control (Digitaria insularis; Table 9, 28 DAA): 13.8%; % Control (Digitaria insularis; Table 9, 35 DAA): 7.5% |
| CS(=O)(=O)c1ccc(C(=O)C2C(=O)CCCC2=O)c([N+](=O)[O-])c1 [Mesotrione] | 57.5 | 43.8 | 35.0 | 26.3 | 2.5 | 0.0 | 67.5 | 65.0 | 51.3 |  |
